Experimental data from paper doi:10.1101/2021.09.30.462449v1 (biorxiv, 2021).
Read-outs that look alike come from different tables or passages of the source.

Legend:
PDK1 = PDK1 (Homo sapiens, UniProt O15530); experiment: biochemical
MELK = MELK (Homo sapiens, UniProt Q14680); experiment: ThermoFisher kinase profiling; assay type: biochemical; conditions: read-out: % inhibition at 1 μM
LIMK2 = LIMK2 (Homo sapiens, UniProt P53671); experiment: biochemical; conditions: read-out: % inhibition mean (Lanthascreen)
ULK1 = ULK1 (Homo sapiens, UniProt O75385); experiment: biochemical; conditions: read-out: % inhibition mean (Lanthascreen)
MASTL = MASTL (Homo sapiens, UniProt Q96GX5); experiment: biochemical; conditions: read-out: % inhibition mean (Lanthascreen)
AAK1 = AAK1 (Homo sapiens, UniProt Q2M2I8); experiment: biochemical; conditions: read-out: % inhibition mean (Lanthascreen)
DAPK2 = DAPK2 (Homo sapiens, UniProt Q9UIK4); experiment: biochemical; conditions: read-out: % inhibition mean (Lanthascreen)
CAMK2G (CaMKII gamma) = CAMK2G (CaMKII gamma) (Homo sapiens, UniProt Q13555); experiment: biochemical; conditions: read-out: % inhibition mean (Lanthascreen)
STK17A (DRAK1) = STK17A (DRAK1) (Homo sapiens, UniProt Q9UEE5); experiment: biochemical; conditions: read-out: % inhibition mean (Lanthascreen)
MAP4K1 (HPK1) = MAP4K1 (HPK1) (Homo sapiens, UniProt Q92918); experiment: biochemical; conditions: read-out: % inhibition mean (Lanthascreen)
AMPK (A2/B2/G2) = AMPK (A2/B2/G2) (Homo sapiens, UniProt P54646); experiment: biochemical; conditions: read-out: % inhibition mean (Lanthascreen)
TAOK1 = TAOK1 (Homo sapiens, UniProt Q7L7X3); experiment: biochemical; conditions: read-out: % inhibition mean (Lanthascreen)
TEC = TEC (Homo sapiens, UniProt P42680); experiment: biochemical; conditions: read-out: % inhibition mean (Lanthascreen)
CDK5 (Inactive) = CDK5 (Inactive) (Homo sapiens, UniProt Q00535); experiment: biochemical; conditions: read-out: % inhibition mean (Lanthascreen)
CAMKK2 (CaMKK beta) = CAMKK2 (CaMKK beta) (Homo sapiens, UniProt Q96RR4); experiment: biochemical; conditions: read-out: % inhibition mean (Lanthascreen)
WEE1 = WEE1 (Homo sapiens, UniProt P30291); experiment: biochemical; conditions: read-out: % inhibition mean (Lanthascreen)
ALK F1174L = ALK F1174L (Homo sapiens, UniProt Q9UM73, F1174L); experiment: biochemical; conditions: read-out: % inhibition mean (Lanthascreen)
BRSK2 = BRSK2 (Homo sapiens, UniProt Q8IWQ3); experiment: biochemical; conditions: read-out: % inhibition mean (Lanthascreen)
NUAK2 = NUAK2 (Homo sapiens, UniProt Q9H093); experiment: biochemical; conditions: read-out: % inhibition mean (Lanthascreen)
DYRK2 = DYRK2 (Homo sapiens, UniProt Q92630); experiment: biochemical; conditions: read-out: % inhibition mean (Lanthascreen)
KIT D816V = KIT D816V (Homo sapiens, UniProt P10721, D816V); experiment: biochemical; conditions: read-out: % inhibition mean (Lanthascreen)
RET G691S = RET G691S (Homo sapiens, UniProt P07949, G691S); experiment: biochemical; conditions: read-out: % inhibition mean (Lanthascreen)
AMPK (A1/B2/G1) = AMPK (A1/B2/G1) (Homo sapiens, UniProt Q13131); experiment: biochemical; conditions: read-out: % inhibition mean (Lanthascreen)
DDR2 = DDR2 (Homo sapiens, UniProt Q16832); experiment: biochemical; conditions: read-out: % inhibition mean (Lanthascreen)
[1] = molecular target: MAP2K1 (MEK1) S218D S222D (Homo sapiens, UniProt Q02750, S218D/S222D); experiment: biochemical; conditions: read-out: % inhibition mean (Lanthascreen)
ALK C1156Y = ALK C1156Y (Homo sapiens, UniProt Q9UM73, C1156Y); experiment: biochemical; conditions: read-out: % inhibition mean (Lanthascreen)
ZAK = ZAK (Homo sapiens, UniProt Q9NYL2); experiment: biochemical; conditions: read-out: % inhibition mean (Lanthascreen)
SLK = SLK (Homo sapiens, UniProt Q9H2G2); experiment: biochemical; conditions: read-out: % inhibition mean (Lanthascreen)

Chain of PDK1 (O15530 whole entry): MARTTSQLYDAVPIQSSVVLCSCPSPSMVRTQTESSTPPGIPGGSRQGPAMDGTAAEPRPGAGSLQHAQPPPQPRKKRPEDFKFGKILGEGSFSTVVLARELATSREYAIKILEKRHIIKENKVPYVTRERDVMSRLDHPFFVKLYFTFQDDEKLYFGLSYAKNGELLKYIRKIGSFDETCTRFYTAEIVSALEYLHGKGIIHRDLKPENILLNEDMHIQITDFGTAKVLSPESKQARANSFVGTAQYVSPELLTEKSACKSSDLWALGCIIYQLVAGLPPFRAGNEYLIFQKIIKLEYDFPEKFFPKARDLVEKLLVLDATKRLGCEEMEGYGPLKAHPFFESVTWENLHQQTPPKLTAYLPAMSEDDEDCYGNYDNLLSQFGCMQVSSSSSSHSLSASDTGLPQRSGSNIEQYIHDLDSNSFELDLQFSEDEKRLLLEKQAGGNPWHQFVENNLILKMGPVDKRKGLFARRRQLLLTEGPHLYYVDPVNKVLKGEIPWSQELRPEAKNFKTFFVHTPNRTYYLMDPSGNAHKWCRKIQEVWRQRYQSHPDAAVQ
Chain of WEE1 (P30291 whole entry): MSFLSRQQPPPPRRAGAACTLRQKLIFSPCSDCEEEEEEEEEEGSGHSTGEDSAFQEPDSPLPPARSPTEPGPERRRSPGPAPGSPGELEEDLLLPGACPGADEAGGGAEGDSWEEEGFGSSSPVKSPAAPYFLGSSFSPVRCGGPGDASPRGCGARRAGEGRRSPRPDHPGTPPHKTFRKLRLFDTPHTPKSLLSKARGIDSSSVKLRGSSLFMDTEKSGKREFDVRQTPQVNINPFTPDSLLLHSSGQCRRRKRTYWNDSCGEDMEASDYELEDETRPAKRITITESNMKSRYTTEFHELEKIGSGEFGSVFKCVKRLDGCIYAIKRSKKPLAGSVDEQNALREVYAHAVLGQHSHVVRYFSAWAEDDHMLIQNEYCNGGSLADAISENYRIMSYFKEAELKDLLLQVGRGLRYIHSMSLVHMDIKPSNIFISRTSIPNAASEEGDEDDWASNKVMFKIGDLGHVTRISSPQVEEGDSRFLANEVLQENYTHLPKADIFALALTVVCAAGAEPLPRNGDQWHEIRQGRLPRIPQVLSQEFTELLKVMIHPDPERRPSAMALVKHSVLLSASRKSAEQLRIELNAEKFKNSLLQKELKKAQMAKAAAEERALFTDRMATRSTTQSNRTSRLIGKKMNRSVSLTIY
Chain of ALK F1174L (Q9UM73 whole entry F1174L): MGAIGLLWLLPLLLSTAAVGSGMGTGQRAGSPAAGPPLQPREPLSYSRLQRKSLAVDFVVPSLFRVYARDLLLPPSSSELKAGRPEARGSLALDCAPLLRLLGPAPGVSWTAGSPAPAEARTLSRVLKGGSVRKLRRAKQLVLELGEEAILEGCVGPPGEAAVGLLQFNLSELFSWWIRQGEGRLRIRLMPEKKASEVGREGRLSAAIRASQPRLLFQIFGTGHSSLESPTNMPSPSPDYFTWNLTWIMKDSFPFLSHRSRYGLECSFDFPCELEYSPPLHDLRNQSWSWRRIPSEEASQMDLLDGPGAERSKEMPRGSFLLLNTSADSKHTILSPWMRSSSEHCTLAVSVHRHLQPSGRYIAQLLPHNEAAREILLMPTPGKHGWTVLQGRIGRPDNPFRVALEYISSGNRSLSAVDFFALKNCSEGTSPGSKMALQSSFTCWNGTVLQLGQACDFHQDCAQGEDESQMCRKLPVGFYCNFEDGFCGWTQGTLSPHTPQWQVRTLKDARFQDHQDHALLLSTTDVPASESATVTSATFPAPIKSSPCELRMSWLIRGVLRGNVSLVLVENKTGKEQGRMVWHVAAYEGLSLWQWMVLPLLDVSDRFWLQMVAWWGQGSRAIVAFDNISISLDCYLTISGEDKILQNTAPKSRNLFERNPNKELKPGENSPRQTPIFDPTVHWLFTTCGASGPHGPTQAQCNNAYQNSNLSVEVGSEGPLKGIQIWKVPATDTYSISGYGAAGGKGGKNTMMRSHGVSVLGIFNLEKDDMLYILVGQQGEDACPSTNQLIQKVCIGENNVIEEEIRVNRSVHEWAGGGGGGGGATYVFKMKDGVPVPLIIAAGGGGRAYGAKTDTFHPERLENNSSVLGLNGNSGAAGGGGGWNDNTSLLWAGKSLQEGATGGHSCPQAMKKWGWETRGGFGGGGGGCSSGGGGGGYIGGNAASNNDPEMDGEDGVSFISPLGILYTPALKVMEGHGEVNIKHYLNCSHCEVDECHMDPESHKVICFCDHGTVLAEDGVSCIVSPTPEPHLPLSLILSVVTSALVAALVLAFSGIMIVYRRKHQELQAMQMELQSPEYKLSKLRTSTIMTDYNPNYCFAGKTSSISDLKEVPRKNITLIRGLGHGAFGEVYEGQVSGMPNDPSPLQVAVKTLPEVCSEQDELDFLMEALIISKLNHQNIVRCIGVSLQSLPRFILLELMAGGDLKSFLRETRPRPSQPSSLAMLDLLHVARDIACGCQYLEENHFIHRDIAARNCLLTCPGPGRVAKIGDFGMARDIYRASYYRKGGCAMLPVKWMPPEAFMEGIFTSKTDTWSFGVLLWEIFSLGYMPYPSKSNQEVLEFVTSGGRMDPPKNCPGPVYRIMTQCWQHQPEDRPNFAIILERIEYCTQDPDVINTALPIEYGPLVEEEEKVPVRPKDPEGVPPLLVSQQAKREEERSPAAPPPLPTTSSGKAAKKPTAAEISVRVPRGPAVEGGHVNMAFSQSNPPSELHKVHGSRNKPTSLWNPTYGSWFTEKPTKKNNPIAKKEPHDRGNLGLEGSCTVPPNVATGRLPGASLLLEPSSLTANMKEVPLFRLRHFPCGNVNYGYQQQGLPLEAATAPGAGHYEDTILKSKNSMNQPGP
Chain of CAMK2G (CaMKII gamma) (Q13555 whole entry): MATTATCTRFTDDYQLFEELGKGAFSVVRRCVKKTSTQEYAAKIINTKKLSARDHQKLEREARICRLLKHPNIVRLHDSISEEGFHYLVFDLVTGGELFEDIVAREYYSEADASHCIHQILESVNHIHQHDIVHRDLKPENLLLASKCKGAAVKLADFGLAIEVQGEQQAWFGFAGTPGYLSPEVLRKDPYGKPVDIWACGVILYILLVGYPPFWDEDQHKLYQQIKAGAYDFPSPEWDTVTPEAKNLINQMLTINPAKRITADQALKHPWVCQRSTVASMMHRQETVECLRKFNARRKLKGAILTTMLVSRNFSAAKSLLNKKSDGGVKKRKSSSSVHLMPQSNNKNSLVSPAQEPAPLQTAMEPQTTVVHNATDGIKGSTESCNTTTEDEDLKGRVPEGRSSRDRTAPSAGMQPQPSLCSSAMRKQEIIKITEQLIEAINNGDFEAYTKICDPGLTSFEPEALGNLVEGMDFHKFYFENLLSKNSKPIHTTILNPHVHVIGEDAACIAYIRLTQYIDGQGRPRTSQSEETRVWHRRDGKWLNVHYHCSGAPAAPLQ
Chain of MASTL (Q96GX5 whole entry): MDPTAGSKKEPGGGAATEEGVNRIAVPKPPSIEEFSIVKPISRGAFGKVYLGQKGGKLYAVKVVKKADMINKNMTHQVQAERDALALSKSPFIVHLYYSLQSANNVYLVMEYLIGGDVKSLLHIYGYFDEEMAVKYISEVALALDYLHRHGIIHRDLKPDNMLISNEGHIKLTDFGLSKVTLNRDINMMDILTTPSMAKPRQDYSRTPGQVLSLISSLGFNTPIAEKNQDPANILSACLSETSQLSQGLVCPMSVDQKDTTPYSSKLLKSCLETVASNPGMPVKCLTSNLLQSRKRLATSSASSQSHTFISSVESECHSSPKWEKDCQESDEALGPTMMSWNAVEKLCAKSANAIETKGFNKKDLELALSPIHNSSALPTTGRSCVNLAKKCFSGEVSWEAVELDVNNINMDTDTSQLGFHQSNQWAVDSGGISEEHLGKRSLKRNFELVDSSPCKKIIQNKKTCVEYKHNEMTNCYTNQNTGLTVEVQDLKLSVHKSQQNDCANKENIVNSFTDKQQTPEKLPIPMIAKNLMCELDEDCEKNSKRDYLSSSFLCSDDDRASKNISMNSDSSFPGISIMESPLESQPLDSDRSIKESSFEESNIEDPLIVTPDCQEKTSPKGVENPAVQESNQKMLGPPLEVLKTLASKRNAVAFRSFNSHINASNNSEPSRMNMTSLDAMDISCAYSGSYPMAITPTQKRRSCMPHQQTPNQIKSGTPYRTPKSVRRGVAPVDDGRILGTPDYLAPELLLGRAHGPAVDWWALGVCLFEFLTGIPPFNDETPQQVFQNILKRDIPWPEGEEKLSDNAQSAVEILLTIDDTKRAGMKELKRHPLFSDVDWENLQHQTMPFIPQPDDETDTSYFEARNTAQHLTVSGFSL
Chain of ZAK (Q9NYL2 whole entry): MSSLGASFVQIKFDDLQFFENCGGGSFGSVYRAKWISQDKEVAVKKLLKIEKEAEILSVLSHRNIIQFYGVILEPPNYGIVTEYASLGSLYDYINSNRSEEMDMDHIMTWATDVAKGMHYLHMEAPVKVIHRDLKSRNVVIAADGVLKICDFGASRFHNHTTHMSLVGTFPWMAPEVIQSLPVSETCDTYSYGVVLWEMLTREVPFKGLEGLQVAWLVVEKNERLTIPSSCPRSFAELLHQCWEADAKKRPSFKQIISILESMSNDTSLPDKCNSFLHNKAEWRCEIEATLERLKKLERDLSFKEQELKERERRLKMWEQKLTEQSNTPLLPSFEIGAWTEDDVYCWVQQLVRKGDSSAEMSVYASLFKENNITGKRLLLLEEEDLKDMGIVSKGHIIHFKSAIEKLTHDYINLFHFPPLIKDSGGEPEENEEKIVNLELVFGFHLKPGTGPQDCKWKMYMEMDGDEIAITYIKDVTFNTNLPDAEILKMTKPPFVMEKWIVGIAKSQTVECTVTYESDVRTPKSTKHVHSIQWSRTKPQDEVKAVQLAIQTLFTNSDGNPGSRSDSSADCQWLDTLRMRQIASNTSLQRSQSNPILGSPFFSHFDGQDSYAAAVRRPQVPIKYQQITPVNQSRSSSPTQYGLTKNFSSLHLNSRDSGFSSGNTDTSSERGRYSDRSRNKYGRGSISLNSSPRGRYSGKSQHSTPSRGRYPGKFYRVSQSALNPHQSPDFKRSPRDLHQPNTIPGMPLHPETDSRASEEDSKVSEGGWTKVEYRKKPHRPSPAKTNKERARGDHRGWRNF

`COc1ccc2nc3cc(Cl)ccc3c(Nc3cc(CN4CCCC4)c(O)c(CN4CCCC4)c3)c2n1` [Pyronaridine, 4-[(7-Chloro-2-methoxybenzo[b][1,5]naphthyridin-10-yl)amino]-2,6-bis(1-pyrrolidinylmethyl)phenol phosphate (1:4)] gave an inhibition at 1 µM (PDK1; read-out: % inhibition mean (Z'Lyte)) of 0%, an inhibition at 1 µM (PDK1; read-out: % inhibition mean (Z'Lyte), direct format) of 7% and an inhibition at 1 µM (MELK) of 31%. The inhibition at 1 µM (LIMK2) was -1%, the inhibition at 1 µM (ULK1) was -4% and the inhibition at 1 µM (MASTL) was 3%. For the same compound, the inhibition at 1 µM (AAK1) was 0%, the inhibition at 1 µM (DAPK2) was -6% and the inhibition at 1 µM (CAMK2G (CaMKII gamma)) was -1%. The inhibition at 1 µM (STK17A (DRAK1)) was 1%, the inhibition at 1 µM (MAP4K1 (HPK1)) was 1% and the inhibition at 1 µM (AMPK (A2/B2/G2)) was 3%. For the same compound, the inhibition at 1 µM (TAOK1) was -4%, the inhibition at 1 µM (TEC) was 7% and the inhibition at 1 µM (CDK5 (Inactive)) was -1%. The inhibition at 1 µM (CAMKK2 (CaMKK beta)) was -1%, the inhibition at 1 µM (WEE1) was 10% and the inhibition at 1 µM (ALK F1174L) was 8%. For the same compound, the inhibition at 1 µM (BRSK2) was 4%, the inhibition at 1 µM (NUAK2) was 2% and the inhibition at 1 µM (DYRK2) was -7%. It also gave an inhibition at 1 µM (KIT D816V) of -3%, an inhibition at 1 µM (RET G691S) of -3% and an inhibition at 1 µM (AMPK (A1/B2/G1)) of -2%. It also gave an inhibition at 1 µM (DDR2) of 0%, an inhibition at 1 µM [1] of 3% and an inhibition at 1 µM (ALK C1156Y) of -2%. For the same compound, the inhibition at 1 µM (ZAK) was 0% and the inhibition at 1 µM (SLK) was -1%.
